These results are taken from US5157052A, “Method for inhibiting IgE production” (priority 1990, dated 1992).

“Also recorded” adds a separate entry of the source. Where only a bound is given, the exact number is not on record here.

The subject of data set [1] is IgE. Nature of the data set: In vitro IgE inhibition. The data set is classed as cell-based.
The conditions of data set [2]: J. Pene et al., 1988; cited from earlier work.
Data set [3] relates to IgE. In words: ED50 for inhibition of IgE calculated from the examples. The settings on record: for ED50 IgE Inhibition: dose to achieve 50% inhibition of IgE. The data set is classed as in vivo, mouse. How it is done:
From the data in the above examples, the effective dose of each prostaglandin to achieve 50% inhibition of IgE (ED50) was calculated.

The test system of data set [4] is IgE. In words: Serum IgE response induced by FF1-4D5 + H∂A1 anti-IgD antibodies (ELISA, Assay A / Assay F). The format is in vivo, mouse (Balb/c female). As for the experimental part:
Mouse hybridoma cells expressing either FF1-4D5 antibody or H∂A1 antibody are thawed, established in culture, and incubated in mice as ascite tumors. FF1-4D5 antibody is a mouse IgG2a monoclonal antibody of the b allotype that binds the Fd fragment of the ∂ chain of the a allotype IgD which activates β cells through antigen internalization and processing, promoting cognate interactions with antigen-specific T cells (D. K. Goroff et al., J. Immunol. 136: 2382 (1986)). H∂A1 antibody is a mouse IgG2b of the b allotype that binds the Fc fragment of the ∂ chain of the a allotype IgD which activates β cells through crosslinking IgD (I. M. Zitron and B. L. Clevinger, J. Exp. Med. 152: 1135 (1980)). Each antibody is purified from their respective ascites tumor fluid. […] Serum from the injected mice is recovered and the mean concentration of IgE determined.
Serum levels of IgE are determined and IgE levels are shown to be inhibited in a dose dependent manner.
(§1) ELISA (enzyme linked immunosorbant assay) measurements of IgE are as follows. About 5 μg of B1E3 antibody in 100 μl borate buffered saline (pH8.5) is added to wells of a NuncImmulon II 96 well plate (DiRuscio & Assoc., St. Louis, Mo.) at 37° C. for 90 minutes. The non-bound antibody is removed by flicking the plate. Unreacted sites on the plastic plate are blocked by adding about 200 μl of a 2% solution of newborn bovine serum (NBS) in PBS at 37° C. for 60 minutes. The standard IgE (or an unknown murine serum sample) is diluted to between about 4 ng/ml-256 ng/ml in Hanks-HS (20 mM Hepes, 2% NBS in Hanks Balanced Salt Solution, Gibco, Grand Island, N.Y.) or to 1/200 to 1/1000 in Hanks-HS respectively. 100 μl of standard (or unknown dilutions) are added in triplicate to the wells of the plate and allowed to absorb to B1E3 antibody at about 37° C. for 2-4 hours. The solution is removed by flicking the plate and each well is washed with about 0.5 ml 0.05% Tween 20-PBS 5 times. About 100 μl of biotinylated R1E4, called the primary antibody, diluted to 200 ng/ml is added to all wells and incubated at about 4° C. overnight. The solution is removed by flicking the plate and washed 5 times as described above. The developing reagent (Avidin and biotin-horse radish peroxidase) is incubated in 2% NBS in PBS at ambient temperature for 30 minutes, according to manufacturer's specifications (Vector Laboratories, Burlingame, Calif.). About 100 μl of developing reagent is added to each well and incubated at ambient temperature for 30 minutes. Colorimetric substrate for the developing reagent (ABTS peroxidase substrate system, KPL, Gaithersburg, Md.) is prepared by mixing equal volumes of solutions A and B and incubating at ambient temperature for 60 minutes. The developing reagent solution is removed by flicking the plate and washed 5 times as described above. About 100 μl of the mixture of substrates is added to each well and incubated at ambient temperature for 60 minutes. The optical density of each well is determined on a BioTek ELISA reader (Biotek Instruments, Inc., Burlington, Vermont) and the absorbance data transferred electronically to a DEC VAX mainframe computer. A standard curve is fitted to the IgE standard optical densities using straight line, linear regression statistical fits. IgE in the unknown serum samples is determined by comparing the optical density of the unknown to the standard curve and multiplying that number by the dilution of serum used in the assay.
Stimulation of a transient serum IgE response in mouse with two monoclonal antibodies directed against IgD is carried out as follows.
Mouse hybridoma cells expressing either FF1-4D5 antibody or H∂Al antibody are thawed, established in culture, and incubated in CB6 F1 female mice as an ascites tumor and each immunoglobulin is purified from the ascites fluid as described above. […]

Data set [5] deals with IgE. Nature of the data set: Inhibition of de novo IgE synthesis after oral (intragastric) administration. The data set is classed as in vivo, mouse (Balb/c female). The settings on record: for IgE ± SD: 20 μg intragastric TID days 3 and 4. As for the experimental part:
as §1
Three groups of 4 Balb/c female mice per group are injected with both 100 μg FF1-4D5 antibody and 100 μg H∂A1 antibody (Groups B, C, and D). Another group of 4 Balb/c female mice is injected with PBS alone, unstimulated control Group A. One of the stimulated group were not given any prostaglandin control Group B. On day 3 and 4, individual groups receive an intragastric feeding TID of 0.25 ml of 20 μg of (±) methyl 11α,16-dihydroxy-16-methyl-9-oxoprosta-5Z,13E-dien-1-oate (Group C) or 20 μg of prostaglandin E2 (Group D) dissolved in PBS.

Data set [6] has as its system leukocyte membrane proteins. In words: Cell surface density or distribution of leukocyte membrane proteins, overall. The format is in vivo, mouse (Balb/c female). The settings on record: unstimulated mice, 20 μg.
In the next data set the test system is IgM. In words: Serum IgM in anti-IgD stimulated mice (two site sandwich ELISA, Assay E). The data set is classed as in vivo, mouse (Balb/c female). The settings on record: 20 μg IP 3x daily days 3 and 4. How it is done:
Sera from mice treated with compounds in accordance with the method of the invention are analyzed for levels of IgG1, IgG2a, IgG3, and IgM.
Measurement of mouse IgM by a two site sandwich ELISA is performed in substantial accordance with the teachings of Assay B except for the following changes. About 250 ng of rabbit anti-mouse IgM (Zymed Laboratories) is used to coat a NuncImmulon 96 well plate. The IgM standard is purchased from Southern Biotech. The standard curve is linear between 8-500 ng/ml. Serum containing IgM is diluted 1/4,000 to 1/60,000. About a 1/10,000 dilution of goat anti mouse IgM conjugated to horse radish peroxidase is used as a combined primary antibody and developing reagent. 100 μl is added to each well and the plate is incubated at about 4° C. overnight. The colorimetric substrate is prepared and used as described in Assay A.
Two groups of 4 Balb/c female mice per group are injected with both 100 μg FF1-4D5 antibody and 100 μg H∂Al antibody. On day 3 and 4 the mice are injected with PBS (Group A) or 20 μg (±) methyl 11α,16-dihydroxy-16-ethyl-9-oxoprosta-5Z,13E-dien-1-oate (Group B) at 7 a.m., 1 p.m. and 7 p.m. in substantial accordance with the teaching of Example 13. On day -1, 7, 8, 9 and 11, 50-100 μl of serum is recovered and analyzed for IgE by Assay A and for IgM by Assay E. The results are shown in Table 6.
Three groups of 5 Balb/c female mice per group are injected with both 100 μg FF1-4D5 antibody and 100 μg H∂A1 antibody on day 0. Group A is a control with no further treatment. On day 3 and 4, the mice are injected with 20 μg (±) methyl 11α,16-dihydroxy-4,4,16-trimethyl-9-oxoprosta-13E-en-1-oate (Group B) or 20 μg (±) methyl 11α,16-dihydroxy-16-methyl-9-oxoprosta-3,5Z,13E-trien-1-oate (Group C) as in Example 13. On day -1 and 8, […] of serum is recovered and analyzed for IgE, IgG1, IgG2a, IgG3 and IgM by Assays A, B, C, D and E, respectively.
For orientation: In an ELISA, binding on a coated surface is turned into a signal by an enzyme label.

Data set [7] can be described thus: Diarrheal effects in rats. The settings on record: rat, in vivo, po.
Experimental: (§2) Briefly, adult Charles River male rats weighing 210-230 g were individually housed and fasted with water available ad libitum for 24 hours prior to the test. The animals (N=6-12) received logarithmically graded prostaglandin doses orally. Immediately after administration, the animals were returned to their cages, and diarrhea, if any, was assessed on an all or none basis for 8 hours after drug treatment. The ED50 and relative potency values were calculated by the logistic method of Berkson.
The conditions of data set [8]: rat, in vivo.
Experimental: as §2
Setting [9] is: Table 9, 20 μg IP days 3 and 4, day 8 (control 3539).
[10] abbreviates: Table 9, 20 μg IP days 3 and 4, day -1 baseline before treatment.
[11] abbreviates: day -1 baseline before treatment.

With `CCCCC[C@H](O)/C=C/[C@H]1[C@H](O)CC(=O)[C@@H]1C/C=C\CCCC(=O)O` [prostaglandin E2], the “inhibition of IgE in vitro” value in the data set on IgE [1] is “exhibit inhibition of IgE in vitro”. Besides, the “immunosuppressive effects in vitro” value in data set [2] is reported as “Immunosuppressive effects of prostaglandins in vitro has been demonstrated”. In the data set with IgE [3], the “ED50 IgE Inhibition” value was greater than 45.0 μg/mouse/TID. For the same molecule, in the data set on IgE [3] (text of Example 28), the “dosage to achieve 50% inhibition of IgE” value is “greater than 45 μg/mouse”. Moreover, the “inhibition of de novo IgE synthesis in vivo” value in the data set on IgE [4] (20 μg days 3 and 4) is listed as “lack of inhibition”. In addition, the “IgE ± SD” value is 3340 ± 384 ng/mL in the data set with IgE [4] (setting [9]); 897 ± 194 ng/mL with IgE [4] (setting [10]); 3724 ± 1361 ng/mL in the data set with IgE [5] (day 8 (stimulated control 5792, unstimulated 1015)); 1496 ± 219 ng/mL with IgE [5] (day 10 (stimulated control 1498)); 1094 ± 107 ng/mL in the data set with IgE [5] (setting [11]). In addition, the “inhibition of IgE in vivo” value in the data set with IgE [4] (summary statement) is “only low inhibition in vivo”. In addition, the “inhibition of de novo IgE synthesis after oral administration” value with IgE [5] (20 μg intragastric TID) is listed as “ineffective; also recorded: inhibits IgE synthesis slightly, if at all”.
`CCCCC[C@H](O)/C=C/[C@H]1[C@H](O)CC(=O)[C@@H]1CCCCCCC(=O)O` [prostaglandin E1, reference compound]: the “inhibition of IgE in vitro” value with IgE [1] is given as “exhibit inhibition of IgE in vitro”. Besides, in the data set on IgE [4] (20 μg days 3 and 4), the “inhibition of de novo IgE synthesis in vivo” value is listed as “lack of inhibition”. Further, the “IgE ± SD” value with IgE [4] (setting [9]) is 2958 ± 717 ng/mL; with IgE [4] (setting [10]), less than 800 ng/mL. For the same molecule, the “inhibition of IgE in vivo” value in the data set on IgE [4] (summary statement) is “only low inhibition in vivo”.
In the case of `CCCCC(O)(CC)C/C=C/[C@H]1[C@H](O)CC(=O)[C@@H]1C/C=C\CCCC(=O)OC` (mixture of isomers) [(±) methyl 11α,16-dihydroxy-16-ethyl-9-oxoprosta-5Z,13E-dien-1-oate], the “cell surface density and distribution” value in data set [6] was “identical cell surface density and distribution as the control group”. In addition, the “IgE production” value with IgE [4] (20 μg IP 3x daily days 3 and 4, Table 6) is “IgE production is fully inhibited”. Besides, the “IgE ± SD” value with IgE [4] (Table 6, 20 μg IP 3x daily days 3 and 4, day 7 (PBS 4545)) was 847 ± 67 ng/mL; with IgE [4] (Table 6, 20 μg IP 3x daily days 3 and 4, day 8 (PBS 11398)), 1264 ± 173 ng/mL; in the data set with IgE [4] (Table 6, 20 μg IP 3x daily days 3 and 4, day 9 (PBS 7114)), 1064 ± 106 ng/mL; with IgE [4] (Table 6, 20 μg IP 3x daily days 3 and 4, day 11 (PBS 1064)) it was 808 ± 16 ng/mL; in the data set on IgE [4] (Table 6, 20 μg IP 3x daily days 3 and 4, day -1 baseline before treatment), less than 800 ng/mL. For the same molecule, the “IgM synthesis” value in the data set with IgM (Table 6) is recorded as “IgM synthesis is not affected”. Besides, the “IgM ± SD” value stood at 1858 ± 107 µg/mL in the data set on IgM (day 7 (PBS 1488)); 2569 ± 803 µg/mL in the data set with IgM (day 8 (PBS 1690)); 2104 ± 276 µg/mL in the data set with IgM (day 9 (PBS 1396)); 725 ± 199 µg/mL in the data set with IgM (day 11 (PBS 548)); 272 ± 19 µg/mL in the data set on IgM (setting [11]).
Turning to `CCCCCCC(C)(O)C/C=C/[C@H]1[C@H](O)CC(=O)[C@@H]1CCCCCCC(=O)OC` (mixture of isomers) [(±) methyl-20-ethyl-11α,16-dihydroxy-16-methyl-9-oxoprost-13E-en-1-oate], in the data set with IgE [3], the “ED50 IgE Inhibition” value is 1.0 μg/mouse/TID. The molecule further gave a TD50 at 8 h in [7] of 2.7 mg/kg. The “diarrhea side effects” value in data set [8] was “essentially free of detrimental diarrhea side effects”. For the same molecule, the “diarrhea side-effect” value in data set [8] (po) is reported as “essentially free of the undesirable diarrhea side-effect”. For the same molecule, the “de novo IgE synthesis” value in the data set with IgE [4] (20 μg days 3 and 4, Example 24) is recorded as “inhibits de novo IgE synthesis”. For the same molecule, in the data set on IgE [4] (Table 13, 20 μg days 3 and 4, day 8 (control 3653)), the “IgE ± SD” value was less than 800 ng/mL. In addition, in the data set on IgE [4] (summary statement), the “IgE inhibition” value was “excellent IgE inhibition”.
